Measured values taken from patent publication US11958861B2, “Spirocyclic lactams as JAK2 V617F inhibitors” (Incyte Corporation, priority 2021, dated 2024).
Where a name gives a salt, the structure may show the parent alone.

What was measured:
[1] = target: T1, pseudo-kinase domain (JH2, amino-acids 536-812) of human Wild Type JAK2 (Homo sapiens, UniProt O60674, F794H/W659A/W777A); experiment: JAK2 LanthaScreen JH2-WT Binding Assay; settings: 1 hour at 25° C.
T1 construct: pseudo-kinase domain (JH2, amino-acids 536-812 with 3 surface mutations W659A, W777A, F794H); purchased BPS Bioscience 79463; host or cells: baculovirus expression system
How it was run: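 Binding was measured by TR-FRET between streptavidin-Tb (0.25 nM) on biotinylated JH2 (0.145 nM) and 50 nM fluorescent tracer, with compound dose series, 1 h at 25° C; IC50 fitted.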

[2] = target: T2, catalytic domain (JH1, amino acids 826-1132) of human JAK2 (Homo sapiens, UniProt O60674); experiment: JAK2 LanthaScreen JH1 Binding Assay; settings: 2 hours at 25° C.
T2 construct: catalytic domain (JH1, amino acids 826-1132) of human JAK2; purchased Carna Biosciences 08-445-20N; host or cells: baculovirus expression system
How it was run: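 FLAG-tagged biotinylated JAK2 JH1 (1.5 nM) incubated with compounds, 50 nM fluorescent tracer and 0.5 nM streptavidin-Tb in Tris pH 7.5 buffer with MgCl2, BSA, DTT, 2 h at 25 °C.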

[3] = target: T3, pseudo-kinase domain (JH2, amino-acids 536-812) of human V617F mutant JAK2 (Homo sapiens, UniProt O60674, F794H/V617F/W659A/W777A); experiment: JAK2 LanthaScreen JH2-V617F Binding Assay; settings: 1 hour at 25° C.
T3 construct: pseudo-kinase domain (JH2, amino-acids 536-812 with 3 surface mutations W659A, W777A, F794H); purchased BPS Bioscience 79498; host or cells: baculovirus expression system
How it was run: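 IC50 values came from four-parameter dose-response fits of LanthaScreen signal, read after compounds sat 1 hour at 25° C with 0.26 nM baculovirus-expressed biotinylated protein, 50 nM fluorescent tracer and 0.25 nM streptavidin-Tb cryptate. Non-specific binding was set with 2 mM ATP.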

[4] = target: T4, catalytic domain (JH1, amino acids 808-1132) of human JAK2 (Homo sapiens, UniProt O60674); experiment: JAK2 HTRF Enzyme Activity Assay; type: biochemical; settings: ATP 30 μM, read-out: ENZ 30UMATP
T4 construct: catalytic domain (JH1, amino acids 808-1132) of human JAK2; His (N); purchased BPS Bioscience 40450; host or cells: baculovirus expression system
How it was run: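 His-tagged JAK2 JH1 from baculovirus, 0.015 nM, incubated with compound, ATP at 30 μM or 1 mM and 500 nM biotinylated peptide, pH 7.5, 60 min at 25° C. HTRF read-out via Eu-anti-phosphotyrosine and streptavidin-APC after EDTA stop; IC50 from four-parameter dose-response fit.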

T3 sequence (O60674 536-812 V617F/W659A/W777A/F794H): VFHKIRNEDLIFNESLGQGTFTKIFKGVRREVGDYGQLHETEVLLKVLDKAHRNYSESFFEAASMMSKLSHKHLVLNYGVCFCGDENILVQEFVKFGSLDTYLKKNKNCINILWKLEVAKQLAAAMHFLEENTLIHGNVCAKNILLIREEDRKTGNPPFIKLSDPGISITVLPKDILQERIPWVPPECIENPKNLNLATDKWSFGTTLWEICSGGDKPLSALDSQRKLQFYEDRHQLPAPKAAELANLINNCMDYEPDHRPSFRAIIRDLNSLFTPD
T1 sequence (O60674 536-812 W659A/W777A/F794H): as the sequence (O60674 536-812 V617F/W659A/W777A/F794H) above, with F82V counted along it
T2 sequence (O60674 826-1132): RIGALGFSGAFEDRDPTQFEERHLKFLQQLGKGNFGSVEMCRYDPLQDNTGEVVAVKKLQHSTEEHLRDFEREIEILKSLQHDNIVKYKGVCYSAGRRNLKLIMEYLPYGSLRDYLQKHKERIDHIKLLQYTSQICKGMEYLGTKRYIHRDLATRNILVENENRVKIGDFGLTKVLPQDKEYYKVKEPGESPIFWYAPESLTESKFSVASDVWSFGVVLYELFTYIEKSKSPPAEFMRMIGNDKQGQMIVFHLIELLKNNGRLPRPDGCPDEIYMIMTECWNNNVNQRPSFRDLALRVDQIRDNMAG
T4 sequence (O60674 808-1132): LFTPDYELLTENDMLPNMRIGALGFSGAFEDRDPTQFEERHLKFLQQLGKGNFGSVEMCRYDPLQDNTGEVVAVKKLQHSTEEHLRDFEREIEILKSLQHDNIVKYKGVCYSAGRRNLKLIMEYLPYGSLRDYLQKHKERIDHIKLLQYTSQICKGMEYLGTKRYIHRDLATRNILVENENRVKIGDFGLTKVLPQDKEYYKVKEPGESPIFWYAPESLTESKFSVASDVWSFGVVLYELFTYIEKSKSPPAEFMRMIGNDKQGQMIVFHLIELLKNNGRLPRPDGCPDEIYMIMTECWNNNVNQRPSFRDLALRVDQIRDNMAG

SMILES | IC50 [1] | IC50 [2] | IC50 [3] | IC50 [4]
CCS(=O)(=O)N1CC(CC#N)(N2CCC3(CC2)C(=O)N(C)c2cnc4[nH]c(-c5cnn(C)c5)c(-c5ccccc5)c4c23)C1 [Example 23, 2-(1-(Ethylsulfonyl)-3-(6-methyl-2-(1-methyl-1H-pyrazol-4-yl)-7-oxo-1-phenyl-6,7-dihydro-3H-spiro[dipyrrolo[2,3-b:3′,2′-d]pyridine-8,4′-piperidin]-1′-yl)azetidin-3-yl)acetonitrile, trifluoroacetate salt] | ≤ 100 nM | 500 to 1250 nM | ≤ 100 nM | 100 to 500 nM
CCS(=O)(=O)N1CC2(C1)CC1(C2)C(=O)N(C)c2cnc3[nH]c(-c4cnn5c4CCC5)c(-c4ccc5c(cnn5C)c4)c3c21 [Example 94, 2″-(5,6-Dihydro-4H-pyrrolo[l,2-b]pyrazol-3-yl)-1-(ethylsulfonyl)-6″-methyl-1″-(1-methyl-1H-indazol-5-yl)-3″,6″-dihydro-7″-dispiro[azetidine-3,1′-cyclobutane-3′,8″-dipyrrolo[2,3-b:3′,2′-d]pyridin]-7″-one, trifluoroacetate salt] | ≤ 100 nM | > 2500 nM | ≤ 100 nM | > 2500 nM
COC(=O)N1CCC(CC#N)(N2CCC3(CC2)C(=O)N(C)c2cnc4[nH]c(-c5cnn(C)c5)c(-c5ccc6c(cnn6C)c5)c4c23)CC1 [Example 81, Methyl 4-(cyanomethyl)-4-(6-methyl-1-(1-methyl-1H-indazol-5-yl)-2-(1-methyl-1H-pyrazol-4-yl)-7-oxo-6,7-dihydro-3H-spiro[dipyrrolo[2,3-b:3′,2′-d]pyridine-8,4′-piperidin]-1′-yl)piperidine-1-carboxylate] | ≤ 100 nM | 500 to 1250 nM | ≤ 100 nM | 500 to 1250 nM
COC(C)(C)Cn1cc(-c2[nH]c3ncc4c(c3c2-c2ccc3c(cnn3C)c2)C2(CCN(C3(CC#N)CCC3)CC2)C(=O)N4C)cn1 [Example 44, 2-(1-(2-(1-(2-Methoxy-2-methylpropyl)-1H-pyrazol-4-yl)-6-methyl-1-(1-methyl-1H-indazol-5-yl)-7-oxo-6,7-dihydro-3H-spiro[dipyrrolo[2,3-b:3′,2′-d]pyridine-8,4′-piperidin]-1′-yl)cyclobutyl)acetonitrile, trifluoroacetate salt] | ≤ 100 nM | 100 to 500 nM | ≤ 100 nM | 100 to 500 nM
CN1C(=O)C2(CCN(c3ccncn3)CC2)c2c1cnc1[nH]c(-c3cnn(C)c3)c(C3=CCOCC3)c21 [Example 20, 1-(3,6-Dihydro-2H-pyran-4-yl)-6-methyl-2-(1-methyl-1H-pyrazol-4-yl)-(1-(pyrimidin-4-yl)-3,6-dihydro-7H-spiro[dipyrrolo[2,3-b:3′,2′-d]pyridine-8,4′-piperidin]-7-one, trifluoroacetate salt] | 100 to 500 nM | > 2500 nM | 100 to 500 nM | > 2500 nM
CN1C(=O)C2(CCN(C3(CC#N)CC(NS(=O)(=O)c4ccccc4)C3)CC2)c2c1cnc1[nH]c(-c3cnn(C)c3)c(-c3ccccc3)c21 (stereo not shown) [Example 29, N-(3-(Cyanomethyl)-3-(6-methyl-2-(1-methyl-1H-pyrazol-4-yl)-7-oxo-1-phenyl-6,7-dihydro-3H-spiro[dipyrrolo[2,3-b:3′,2′-d]pyridine-8,4′-piperidin]-1-yl)cyclobutyl)benzenesulfonamide, trifluoroacctate salt] | ≤ 100 nM | 500 to 1250 nM | ≤ 100 nM | 500 to 1250 nM
CN1C(=O)C2(CCCC2)c2c1cnc1[nH]c(-c3cnn(Cc4ccncc4)c3)c(-c3ccc4c(cnn4C)c3)c21 [Example 8, 6′-Methyl-1′-(1-methyl-1H-indazol-5-yl)-2′-(1-(pyridin-4-ylmethyl)-1H-pyrazol-4-yl)-3′,6′-dihydro-7′H-spiro[cyclopentane-1,8′-dipyrrolo[2,3-b:3′,2′-d]pyridin]-7′-one trifluoroacetate salt] | ≤ 100 nM | 1250 to 2500 nM | ≤ 100 nM | > 2500 nM
CCCC(=O)N1CCC2(CC1)CC1(C2)C(=O)N(C)c2cnc3[nH]c(-c4ccn(C)c4)c(-c4ccc5c(cnn5C)c4)c3c21 [Example 64, 1″-Butyryl-6-methyl-1-(1-methyl-1H-indazol-5-yl)-2-(1-methyl-1H-pyrrol-3-yl)-3,6-dihydro-7H-dispiro[dipyrrolo[2,3-b:3′,2′-d]pyridine-8,1cyclobutane-3′,4″-piperidin]-7-one, trifluoroacetate salt] | ≤ 100 nM | 1250 to 2500 nM | ≤ 100 nM | 1250 to 2500 nM
CN1C(=O)C2(CCN(CC3(CC#N)CC4(CCC4)C3)C2)c2c1cnc1[nH]c(-c3cnn(C)c3)c(-c3ccc4c(cnn4C)c3)c21 (racemic) [Example 70, 2-(2-((6-Methyl-1-(1-methyl-1H-indazol-5-yl)-2-(1-methyl-1H-pyrazol-4-yl)-7-oxo-6,7-dihydro-3H-spiro[dipyrrolo[2,3-b:3′,2′-d]pyridine-8,3′-pyrrolidin]-1′-yl)methyl)spiro[3.3]heptan-2-yl)acetonitrile] | ≤ 100 nM | > 2500 nM | ≤ 100 nM | > 2500 nM
CCS(=O)(=O)N1CCC[C@]2(CC1)C(=O)N(C)c1cnc3[nH]c(-c4cnn(C(C)C)c4)c(-c4ccc5c(cnn5C)c4)c3c12 (single isomer, unassigned) [Example 53a] | 100 to 500 nM | > 2500 nM | 500 to 1250 nM | > 2500 nM
COc1cccc(NC(=O)N2CCC3(CC2)C(=O)N(C)c2cnc4[nH]c(-c5ccc(CN6CCC(S(C)(=O)=O)CC6)cc5)c(-c5ccccc5)c4c23)c1 [Example 21, N-(3-Methoxyphenyl)-6-methyl-2-(4-((4-(methylsulfonyl)piperidin-1-yl)methyl)phenyl)-7-oxo-1-phenyl-6,7-dihydro-3H-spiro[dipyrrolo[2,3-b:3′,2′-d]pyridine-8,4′-piperidine]-1′-carboxamide, trifluoroacetate salt] | ≤ 100 nM | > 2500 nM | ≤ 100 nM | > 2500 nM
CN1C(=O)C2(CCCCC2)c2c1cnc1[nH]c(-c3ccc(CN4CCC(S(C)(=O)=O)CC4)cc3)c(-c3ccccc3)c21 [Example 11, 6′-Methyl-2′-((4(4-(methylsulfonyl)piperidin-1-yl)methyl)phenyl)-1′-phenyl-3′,6′-dihydro-7′H-spiro[cyclohexane-1,8′-dipyrrolo[2,3-b:3′,2′-d]pyridin]-7′-one trifluoroacetate salt] | 100 to 500 nM | > 2500 nM | 100 to 500 nM | > 2500 nM
COC(=O)N1CCC2(CC1)CC1(C2)C(=O)N(C)c2cnc3[nH]c(-c4cnn(C)c4)c(-c4ccc5c(cnn5C)c4)c3c21 [Example 61, Methyl 6-methyl-1-(1-methyl-1H-indazol-5-yl)-2-(1-methyl-1H-pyrazol-4-yl)-7-oxo-6,7-dihydro-3H-dispiro[dipyrrolo[2,3-b:3′,2′-d]pyridine-8,1′-cyclobutane-3′,4″-piperidine]-1″-carboxylate, trifluoroacetate salt] | ≤ 100 nM | 500 to 1250 nM | ≤ 100 nM | 500 to 1250 nM
